Measured values as given in patent publication US12110279B2, “Triazolones, tetrazolones, and imidazolones, or their salts, and pharmaceutical compositions comprising the same” (Yuhan Corporation, priority 2021, dated 2024).
Counter-ions that a name gives are not always drawn. Like-named read-outs stand apart in the source and are kept apart here.

Columns and labels:
Type in all cases: biochemical
[1] = target: T1, recombinant human MAO-B (monoamine oxidase-B) (Homo sapiens, UniProt P27338); experiment: Amplex Red HRP-coupled amine oxidase activity evaluation, recombinant human MAO-B; details: substrate 1 mM benzylamine; read-out: Inhibitory Activity (IC50, nM) MAO-B
T1 construct: purchased Sigma-Aldrich
T1 sequence (P27338 1-520): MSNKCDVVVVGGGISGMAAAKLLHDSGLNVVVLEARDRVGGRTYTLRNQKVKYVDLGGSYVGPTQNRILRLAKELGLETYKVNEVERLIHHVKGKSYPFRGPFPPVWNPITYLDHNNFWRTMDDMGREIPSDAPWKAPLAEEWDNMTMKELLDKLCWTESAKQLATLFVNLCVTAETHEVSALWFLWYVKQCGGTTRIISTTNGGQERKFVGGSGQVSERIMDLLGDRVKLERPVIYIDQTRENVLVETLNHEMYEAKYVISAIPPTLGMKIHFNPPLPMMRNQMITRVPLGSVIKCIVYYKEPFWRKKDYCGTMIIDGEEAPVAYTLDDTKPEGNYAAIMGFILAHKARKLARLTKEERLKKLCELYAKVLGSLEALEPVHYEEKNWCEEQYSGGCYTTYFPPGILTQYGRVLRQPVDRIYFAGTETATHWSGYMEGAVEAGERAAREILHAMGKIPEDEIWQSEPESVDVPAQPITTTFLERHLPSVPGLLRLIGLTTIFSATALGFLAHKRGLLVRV
Description: [The source words this procedure for another target and says it was used here with some conditions changed.] (§1) The compounds according to the present technology were evaluated in terms of activity on recombinant human VAP-1 (R&D systems) by measuring the level of hydrogen peroxide in horseradish peroxidase (HRP)-coupled reaction using Amplex Red Hydrogen Peroxide Assay Kit (Molecular Probes, Invitrogen, USA). The experiment was carried out at room temperature using benzylamine as a substrate. In the HRP-coupled reaction, hydrogen peroxide oxidation of 10-acetyl-3,7-dihydroxyphenoxazine (Amplex Red reagent) produces resorufin, which is a highly fluorescent compound. Briefly, the test compound was dissolved in dimethyl sulfoxide (DMSO) at a concentration of 20 mM. The dose-response assessment was made by 1:3 serial dilution in DMSO, thereby creating an 8-point curve. The concentration of the upper part was controlled according to the efficacy of the compounds, followed by dilution with a reaction buffer solution to obtain a final DMSO concentration of less than 1%. To each well of a 96 black well plate, human VAP-1 purified in 50 mM sodium phosphate buffer solution (pH7.4) was added. The test compounds dissolved in DMSO were incubated with the human VAP-1 enzymes at 37° C. for 30 minutes. After 30-minute incubation, each well was added with a reaction mixture containing 200 uM Amplex Red reagent prepared from 50 mM sodium phosphate buffer solution (pH 7.4), 1 mM benzylamine, and 1 U/mL HRP. Fluorescence intensity was measured at several time points during 1-2 hours using a microplate reader (Flexstation3, Molecular Devices) under the wavelength condition exciting at 544 nm and reading the emission at 590 nm. The inhibitory effect of the compounds was measured as a decrease (%) in the signal rate as compared to the control group without any inhibitor (only diluted DMSO). Data was fixed to a logistic model with four variables and IC50 value was calculated using GraphPad Prism program.

[2] = target: T2, recombinant human MAO-A (monoamine oxidase-A) (Homo sapiens, UniProt P21397); experiment: Amplex Red HRP-coupled amine oxidase activity evaluation, recombinant human MAO-A; details: substrate 0.5 mM tyramine; read-out: Inhibitory Activity (IC50, nM) MAO-A
T2 construct: purchased Sigma-Aldrich
T2 sequence (P21397 1-527): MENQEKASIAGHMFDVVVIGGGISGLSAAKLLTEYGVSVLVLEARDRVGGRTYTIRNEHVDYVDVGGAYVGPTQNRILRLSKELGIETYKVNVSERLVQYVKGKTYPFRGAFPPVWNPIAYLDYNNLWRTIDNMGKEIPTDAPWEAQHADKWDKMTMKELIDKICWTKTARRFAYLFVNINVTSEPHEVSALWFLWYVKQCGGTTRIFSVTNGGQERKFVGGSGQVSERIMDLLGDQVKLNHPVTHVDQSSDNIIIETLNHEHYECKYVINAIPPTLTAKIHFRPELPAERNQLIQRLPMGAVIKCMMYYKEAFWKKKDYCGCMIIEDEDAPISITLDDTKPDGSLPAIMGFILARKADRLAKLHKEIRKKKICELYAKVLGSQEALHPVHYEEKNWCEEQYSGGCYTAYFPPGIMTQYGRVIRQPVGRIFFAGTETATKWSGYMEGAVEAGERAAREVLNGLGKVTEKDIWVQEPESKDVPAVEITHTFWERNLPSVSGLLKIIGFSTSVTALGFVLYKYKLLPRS
Description: [The source words this procedure for another target and says it was used here with some conditions changed.] as §1

recombinant human VAP-1 = target: T3, recombinant human VAP-1 (Homo sapiens, UniProt Q16853); experiment: Amplex Red HRP-coupled amine oxidase activity evaluation, recombinant human VAP-1; details: substrate 1 mM benzylamine; 30 min preincubation at 37° C.; read-out: Inhibitory Activity (IC50, nM) human VAP-1
T3 construct: purchased R&D systems
T3 sequence (Q16853 1-763): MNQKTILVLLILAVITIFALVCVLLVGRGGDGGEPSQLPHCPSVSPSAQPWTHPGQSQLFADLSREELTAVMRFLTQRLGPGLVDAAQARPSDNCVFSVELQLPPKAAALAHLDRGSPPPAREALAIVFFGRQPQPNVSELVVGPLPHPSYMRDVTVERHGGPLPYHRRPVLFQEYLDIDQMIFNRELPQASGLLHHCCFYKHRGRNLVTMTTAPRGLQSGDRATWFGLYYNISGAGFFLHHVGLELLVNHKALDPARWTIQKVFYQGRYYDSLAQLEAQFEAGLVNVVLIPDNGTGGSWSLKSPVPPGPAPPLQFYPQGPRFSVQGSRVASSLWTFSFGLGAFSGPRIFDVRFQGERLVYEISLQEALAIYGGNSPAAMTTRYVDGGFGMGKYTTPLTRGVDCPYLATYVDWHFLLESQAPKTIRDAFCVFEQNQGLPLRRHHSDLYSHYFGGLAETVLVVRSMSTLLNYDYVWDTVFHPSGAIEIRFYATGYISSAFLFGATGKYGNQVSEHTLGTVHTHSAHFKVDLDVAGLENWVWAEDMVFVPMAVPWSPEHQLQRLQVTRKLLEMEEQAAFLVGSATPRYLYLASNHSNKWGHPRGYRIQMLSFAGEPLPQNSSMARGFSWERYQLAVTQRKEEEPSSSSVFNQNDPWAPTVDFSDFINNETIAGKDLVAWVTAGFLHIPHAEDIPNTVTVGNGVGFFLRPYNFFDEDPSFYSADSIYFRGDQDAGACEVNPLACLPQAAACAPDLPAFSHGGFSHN
Description: as §1

[3] = target: T4, recombinant human DAO (diamine oxidase) (Homo sapiens, UniProt P19801); experiment: Amplex Red HRP-coupled amine oxidase activity evaluation, recombinant human DAO
T4 construct: purchased R&D systems
T4 sequence (P19801 20-751): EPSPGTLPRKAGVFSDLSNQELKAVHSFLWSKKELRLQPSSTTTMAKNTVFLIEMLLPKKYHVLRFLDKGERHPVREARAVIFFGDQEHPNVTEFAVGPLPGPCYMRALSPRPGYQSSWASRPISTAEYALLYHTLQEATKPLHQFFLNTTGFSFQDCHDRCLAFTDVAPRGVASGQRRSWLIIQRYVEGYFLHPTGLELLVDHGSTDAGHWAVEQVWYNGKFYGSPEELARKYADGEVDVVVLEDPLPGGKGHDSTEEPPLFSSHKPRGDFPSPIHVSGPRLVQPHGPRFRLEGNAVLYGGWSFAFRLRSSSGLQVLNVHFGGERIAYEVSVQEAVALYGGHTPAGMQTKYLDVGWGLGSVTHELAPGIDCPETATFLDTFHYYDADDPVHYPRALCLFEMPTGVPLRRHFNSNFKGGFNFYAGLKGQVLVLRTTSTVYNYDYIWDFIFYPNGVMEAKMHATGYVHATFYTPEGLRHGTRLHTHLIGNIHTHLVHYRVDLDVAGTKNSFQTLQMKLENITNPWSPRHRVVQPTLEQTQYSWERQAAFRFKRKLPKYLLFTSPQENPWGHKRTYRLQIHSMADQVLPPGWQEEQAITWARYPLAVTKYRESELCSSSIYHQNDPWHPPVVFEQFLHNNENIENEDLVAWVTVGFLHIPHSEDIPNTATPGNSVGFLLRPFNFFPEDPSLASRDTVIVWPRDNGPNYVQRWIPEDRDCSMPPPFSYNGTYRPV
Description: [The source words this procedure for another target and says it was used here with some conditions changed.] as §1

[4] = substrate 1 mM putrescine, read-out: Inhibitory Activity (IC50, nM) DAO

| SMILES | IC50 [1] [nM] | IC50 [2] [nM] | IC50 (recombinant human VAP-1) [nM] | IC50 [3] [nM] | IC50 [3, 4] [nM] |
| --- | --- | --- | --- | --- | --- |
| CCn1cc(-c2cccc(-n3nnn(CC(CN)=C(F)F)c3=O)c2)ccc1=O [Example 12, 5-[3-[4-[2-(aminomethyl)-3,3-difluoro-allyl]-5-oxo-tetrazol-1-yl]phenyl]-1-ethyl-pyridin-2-one di-trifluoroacetate] | > 100000 | > 100000 | 0.9 | 10 | – |
| Cc1cc(-c2cccc(-n3nnn(CC(CN)=C(F)F)c3=O)c2)cc2c1NC(=O)CC2 [Example 13, 6-[3-[4-[2-(aminomethyl)-3,3-difluoro-allyl]-5-oxo-tetrazol-1-yl]phenyl]-8-methyl-3,4-dihydro-1H-quinolin-2-one trifluoroacetate] | 7800 | > 100000 | 0.7 | – | 12 |
| CN1C(=O)CCc2cc(-c3cccc(-n4nnn(CC(CN)=C(F)F)c4=O)c3)ccc21 [Example 14, 6-[3-[4-[2-(aminomethyl)-3,3-difluoro-allyl]-5-oxo-tetrazol-1-yl]phenyl]-1-methyl-3,4-dihydroquinolin-2-one trifluoroacetate] | 2470 | > 100000 | 1.4 | 12 | – |
| CCn1cc(-c2cccc(-n3nnn(CC(CN)=C(F)F)c3=O)c2)cn1 [Example 15, 1-[2-(aminomethyl)-3,3-difluoro-allyl]-4-[3-(1-ethylpyrazol-4-yl)phenyl]tetrazol-5-one trifluoroacetate] | 43500 | > 100000 | 1 | 113 | – |
| CS(=O)(=O)c1ccc(-c2ccc(-n3nnn(CC(CN)=C(F)F)c3=O)cc2)cc1 [Example 16, 1-[2-(aminomethyl)-3,3-difluoro-allyl]-4-[4-(4-methylsulfonylphenyl)phenyl]tetrazol-5-one trifluoroacetate] | 260 | > 100000 | 1.5 | – | 55 |
| NCC(Cn1nnn(-c2ccc(-c3ccc(N4CCNCC4)cc3)cc2)c1=O)=C(F)F [Example 17, 1-[2-(aminomethyl)-3,3-difluoro-allyl]-4-[4-(4-piperazin-1-ylphenyl)phenyl]tetrazol-5-one di-trifluoroacetate] | 3990 | > 100000 | 1.2 | – | 65 |
| CCn1cc(-c2ccc(-n3nnn(CC(CN)=C(F)F)c3=O)cc2)ccc1=O [Example 18, 5-[4-[4-[2-(aminomethyl)-3,3-difluoro-allyl]-5-oxo-tetrazol-1-yl]phenyl]-1-ethyl-pyridin-2-one trifluoroacetate] | 78 | > 100000 | 0.2 | – | > 100000 |
| NCC(Cn1nnn(-c2ccc(-c3ccc4c(c3)OCO4)cc2)c1=O)=C(F)F [Example 19, 1-[2-(aminomethyl)-3,3-difluoro-allyl]-4-[4-(1,3-benzodioxol-5-yl)phenyl]tetrazol-5-one trifluoroacetate] | 8.8 | > 100000 | 0.5 | – | 4890 |
| Cc1cc(-c2ccc(-n3nnn(CC(CN)=C(F)F)c3=O)cc2)cc2c1NC(=O)CC2 [Example 20, 6-[4-[4-[2-(aminomethyl)-3,3-difluoro-allyl]-5-oxo-tetrazol-1-yl]phenyl]-8-methyl-3,4-dihydro-1H-quinolin-2-one trifluoroacetate] | 49 | 82600 | 0.4 | – | > 100000 |
| CN1C(=O)CCc2cc(-c3ccc(-n4nnn(CC(CN)=C(F)F)c4=O)cc3)ccc21 [Example 21, 6-[4-[4-[2-(aminomethyl)-3,3-difluoro-allyl]-5-oxo-tetrazol-1-yl]phenyl]-1-methyl-3,4-dihydroquinolin-2-one trifluoroacetate] | 43 | > 100000 | 0.5 | – | 38 |
| CCn1cc(-c2ccc(-n3nnn(CC(CN)=C(F)F)c3=O)cc2)cn1 [Example 22, 1-[2-(aminomethyl)-3,3-difluoro-allyl]-4-[4-(1-ethylpyrazol-4-yl)phenyl]tetrazol-5-one trifluoroacetate] | 74 | 98400 | 0.3 | 95 | – |
| Cc1ccc(-c2ccc(S(C)(=O)=O)cc2)nc1-n1nnn(CC(CN)=C(F)F)c1=O [Example 23, 1-[2-(aminomethyl)-3,3-difluoro-allyl]-4-[3-methyl-6-(4-methylsulfonylphenyl)-2-pyridyl]tetrazol-5-one trifluoroacetate] | 59400 | > 100000 | > 100 | – | > 100000 |
